Results as given in patent publication US20120195856A1, “Method of treating patients with cardiovascular illness” (priority 2011, published 2012).
Where two headings read alike, the source gives them in different places. Values belong to the compound of their own block, whether it stands above or below them.

What was measured:
[1] = Patient M.
[2] = design: species or system human; conditions: in vivo
Excerpt: The use of the antiviral drug is not useful for a longer period, as the remission period begins for the patient and the drug is ineffective.

[3] = format: in vivo, human
Excerpt: Example 1. Patient, came to the clinic with a diagnosis of ischemic heart disease. Exertional angina, functional class III. Postinfarction cardiosclerosis (myocardial infarction in 1981). Atherosclerosis of the coronary arteries. Circulatory deficiency stage IIA. Cerebral atherosclerosis. Chronic cerebral impairment. Symptomatic hypertension. At arrival, complained of a squeezing pain in the area of the heart with radiation to the right hand, which arise both at rest and during physical activity (up to 4-5 times per day) and were relieved by taking nitroglycerin (up to 8 times per day), as well as shortness of breath while walking, vertigo, periodic headaches, ringing in the ears, irritability, and insomnia. The patient was prescribed treatment: anti-angina drugs (Nitrosorbidum 30 mg/day, Corinfar 30 mg/day; also has hypotensive activity), and Valacyclovir 2 tablets (1.0 g) three times a day. […] The atherogenesis index fell from 4.74 to 3.38, and there was an increase in cholesterol/HDL from 1.17 mmol/l to 1.20 mmol/l. During the treatment process, a slowing in the free-radical acidization of lipids was seen; the content of serum malondialdehyde fell from 0.50 mcmol/ml to 0.31 mcmol/ml, diethynoid conjugates fell from 1.332 mcmol/ml to 0.70 mcmol/ml, triethynoid conjugates declined from 0.23 mcmol/ml to 0.14 mcmol/ml; the a-tocopherol content recovered from 2.69 mcmol/ml to 4.32 mcmol/ml; the glutathione reductase activity went from 12.4 mcmol/l h to 22.0 mcmol/l h. On the electrocardiogram, a decrease in the T index from 35.0 to 0, in the SST from 11.0 to 0, and in the NST from 10.0 to 0 were seen. […] Angina pain and shortness of breath not present; nitroglycerine tablets not used. Vertigo and headaches had decreased.
Thus in the process of treatment, in the patient who took Valacyclovir, lipidogram, peroxide acidization of lipids, electrocardiography, and tetrapolar rheography indicators normalized. Valacyclovir side effects were not observed.

[4] = Example 4: patient with ischemic heart disease, lipid and liver complexes after Zocor and then combination anti-viral therapy; format: in vivo, human; conditions: after six months of Zocor 20 mg/day, goal indicator 4.0

long-term remission of the illness or substantial positive stabilization of the patient's condition [2]: does not provide long-term remission
SMILES: CC(C)[C@H](N)C(=O)OCCOCn1cnc2c(=O)[nH]c(N)nc21 [Valacyclovir]
total cholesterol ([1]; after Valacyclovir 1.0 g 3×/day for 3 courses of 7 days, with standard treatment, goal value 5.0): 4.7 mmol/L | serum malondialdehyde content ([3]; after Valacyclovir 1.0 g three times a day + anti-angina drugs, before 0.50): 0.31 mcmol/ml | LDL in blood serum ([3]; after Valacyclovir 1.0 g three times a day + anti-angina drugs, before 1.55): 0.47 mmol/L | cholesterol/LDL in blood serum ([3]; after Valacyclovir 1.0 g three times a day + anti-angina drugs, before 3.99): 3.68 mmol/L | electrocardiogram NST ([3]; after Valacyclovir 1.0 g three times a day + anti-angina drugs, before 10.0): 0 | electrocardiogram SST ([3]; after Valacyclovir 1.0 g three times a day + anti-angina drugs, before 11.0): 0 | electrocardiogram T index ([3]; after Valacyclovir 1.0 g three times a day + anti-angina drugs, before 35.0): 0 | side effects ([3]; human, in vivo): not observed | lipidogram, peroxide acidization of lipids, electrocardiography, and tetrapolar rheography indicators ([3]; in the process of treatment, patient who took Valacyclovir): normalized | vertigo and headaches ([3]; within seven weeks, Valacyclovir 1.0 g three times a day + anti-angina drugs): decreased | use of nitroglycerine tablets ([3]; within seven weeks, before up to 8 times per day): not used

long-term remission of the illness or substantial positive stabilization of the patient's condition [2]: does not provide long-term remission
SMILES: Nc1nc2c(ncn2COCCO)c(=O)[nH]1 [Acyclovir]

SMILES: CCC(C)(C)C(=O)O[C@H]1C[C@@H](C)C=C2C=C[C@H](C)[C@H](CC[C@@H]3C[C@@H](O)CC(=O)O3)[C@H]21 [simvastatin]
total cholesterol ([1]; after six months of simvastatin 10 mg/day, goal indicator 5.0): 4.9 mmol/L | total cholesterol [4]: 3.9 mmol/L
